One test concerns the target Troponin, cardiac muscle (Homo sapiens, UniProt P19429+P45379+P63316). The experiment in a line: Fluorescence-based biochemical high throughput dose response assay for activators of the calcium sensitivity of cardiac Regulated Thin Filaments (RTF). [Related pubchem assays (depositor defined):AID493008, AID493018, AID504382, AID504383]. The format is protein-complex assay.

The next test concerns HeLa. The experiment in a line: HeLa cell cytotoxicity, dose response, cytotoxicity control, 24 h, cherry-picked samples (AID 504726).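 Also: potency for cytotoxicity as loss of luminescence signal.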 The format is functional, cell-based. The conditions noted are these: Homo sapiens.
Test [1] has as its target T1, DNA repair and recombination protein RAD54-like (Homo sapiens, UniProt Q92698).
T1 sequence (Q92698 whole entry): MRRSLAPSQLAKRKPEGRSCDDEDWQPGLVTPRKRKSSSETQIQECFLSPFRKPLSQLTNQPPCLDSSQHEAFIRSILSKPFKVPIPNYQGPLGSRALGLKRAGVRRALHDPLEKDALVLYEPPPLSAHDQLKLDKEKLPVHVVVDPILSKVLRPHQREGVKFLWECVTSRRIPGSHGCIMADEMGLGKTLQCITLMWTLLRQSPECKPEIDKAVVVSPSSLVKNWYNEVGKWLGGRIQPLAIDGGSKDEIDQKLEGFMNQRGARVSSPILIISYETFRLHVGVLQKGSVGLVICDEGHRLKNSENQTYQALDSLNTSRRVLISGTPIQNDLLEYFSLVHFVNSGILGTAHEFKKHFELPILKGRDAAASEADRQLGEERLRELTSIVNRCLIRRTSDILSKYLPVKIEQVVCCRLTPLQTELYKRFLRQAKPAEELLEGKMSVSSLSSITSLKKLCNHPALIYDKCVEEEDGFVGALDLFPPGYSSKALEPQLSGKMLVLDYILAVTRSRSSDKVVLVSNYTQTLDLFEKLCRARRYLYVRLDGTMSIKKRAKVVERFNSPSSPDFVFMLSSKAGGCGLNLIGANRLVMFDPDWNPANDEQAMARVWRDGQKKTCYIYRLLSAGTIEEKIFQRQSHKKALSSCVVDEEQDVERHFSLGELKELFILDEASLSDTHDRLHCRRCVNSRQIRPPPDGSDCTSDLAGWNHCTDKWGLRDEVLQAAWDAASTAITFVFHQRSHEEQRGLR
The experiment in a line: inhibitors of human RAD54 branch migration, confirmation, biochemical, fluorescence, cherry-picked samples, dose series (AID 651657). The format is functional.

Test [2] addresses T2, Long-chain-fatty-acid--AMP ligase FadD28 (Mycobacterium tuberculosis, UniProt P9WQ59).
T2 sequence (P9WQ59 whole entry): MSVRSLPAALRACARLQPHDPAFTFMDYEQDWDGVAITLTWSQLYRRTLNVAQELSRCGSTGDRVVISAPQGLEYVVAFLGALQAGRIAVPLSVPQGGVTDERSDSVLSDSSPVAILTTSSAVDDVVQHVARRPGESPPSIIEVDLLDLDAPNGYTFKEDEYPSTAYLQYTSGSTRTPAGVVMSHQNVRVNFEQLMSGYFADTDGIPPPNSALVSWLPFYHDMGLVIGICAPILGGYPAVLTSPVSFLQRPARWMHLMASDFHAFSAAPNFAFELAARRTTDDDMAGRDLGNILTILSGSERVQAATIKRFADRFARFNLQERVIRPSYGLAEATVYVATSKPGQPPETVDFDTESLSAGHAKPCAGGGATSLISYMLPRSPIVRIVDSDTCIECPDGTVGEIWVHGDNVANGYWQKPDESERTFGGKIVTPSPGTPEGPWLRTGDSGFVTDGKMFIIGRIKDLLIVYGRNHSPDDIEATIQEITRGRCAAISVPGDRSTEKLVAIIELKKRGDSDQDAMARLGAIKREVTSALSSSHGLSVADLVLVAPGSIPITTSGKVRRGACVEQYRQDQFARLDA
The experiment in a line: Fluorescence polarization aasay to screen for inhibitors that compete for the binding of FadD28 to a bisubstrate Measured in Biochemical System Using Plate Reader - 2147-01_Inhibitor_Dose_CherryPick_Activity. The format is functional, Mycobacterium tuberculosis H37Rv. (In fluorescence polarisation assays a small probe gives low polarisation when free and higher when bound to something large.)

The target in test [3] is Small ubiquitin-related modifier 1 (Homo sapiens, UniProt P63165). The experiment in a line: inhibitors of SUMO1 partner interactions, dose response, biochemical, FRET (AID 624383). The format is functional. The note with it: read-out: IC50_Mean.
Test [4] can be described thus: cytotoxicity toward DRD oncogenic fibroblasts, dose response, cell-based, non-viral oncogenic, luminescence (AID 1934). The format is functional. The conditions noted are these: Homo sapiens.
The nature of test [5]: Shn3 3'UTR reporter inhibitors, dose response, cell-based, Clone20 osteoblasts, firefly luciferase, cherry-picked (AID 624132).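 Also: firefly luciferase luminescence from reporter carrying the Shn3 3'UTR in osteoblasts.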 The format is functional.

The source made the active and inactive calls.

Chain of Small ubiquitin-related modifier 1 (P63165 whole entry): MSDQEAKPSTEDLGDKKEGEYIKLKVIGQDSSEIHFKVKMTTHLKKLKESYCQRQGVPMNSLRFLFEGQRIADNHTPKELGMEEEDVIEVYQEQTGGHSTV

What is called EC50 is the concentration that produces a half-maximal response. Usually AC50 stands for the midpoint of the concentration-response curve, whichever way the signal moves. As for `CCN(CC)CCN1C(=O)c2cccc3cc(N)cc(c23)C1=O`, the EC50 at Troponin, cardiac muscle was 21.3 µM (inactive). Besides, the AC50 with HeLa is 109 µM (active); in test [1], 8.83 µM (active).

In the case of `O=C(O)c1cccc(-n2cccc2/C=C2/NC(=O)N(c3ccc(Cl)cc3)C2=O)c1`, the AC50 in test [2] was 58 µM (active). In test [3], the IC50 is 17.4 µM (active).

Consider `C=C1C(=O)O[C@@H]2C[C@@H](C)[C@@H]3C=CC(=O)[C@@]3(C)[C@@H](OC(=O)CC(=O)O[C@H]3[C@@H]4C(=C)C(=O)O[C@@H]4C[C@@H](C)[C@@H]4C=CC(=O)[C@]43C)[C@H]12`, for which, in test [4], the EC50 is 0.332 µM (inconclusive). In addition, the AC50 in test [5] was 0.292 µM (active).

These data come from ChEMBL document CHEMBL1201862, “PubChem BioAssay data set” (2004).
